Experimental data taken from patent publication US11427548B2 (Arvinas Operations, Inc., priority 2015, dated 2022).
Read-outs that look alike come from different tables or passages of the source.

Target: T1, Androgen Receptor (Homo sapiens, UniProt P10275)
T1 construct: endogenous in cells; host or cells: VCaP cells
T1 sequence (P10275 1-920): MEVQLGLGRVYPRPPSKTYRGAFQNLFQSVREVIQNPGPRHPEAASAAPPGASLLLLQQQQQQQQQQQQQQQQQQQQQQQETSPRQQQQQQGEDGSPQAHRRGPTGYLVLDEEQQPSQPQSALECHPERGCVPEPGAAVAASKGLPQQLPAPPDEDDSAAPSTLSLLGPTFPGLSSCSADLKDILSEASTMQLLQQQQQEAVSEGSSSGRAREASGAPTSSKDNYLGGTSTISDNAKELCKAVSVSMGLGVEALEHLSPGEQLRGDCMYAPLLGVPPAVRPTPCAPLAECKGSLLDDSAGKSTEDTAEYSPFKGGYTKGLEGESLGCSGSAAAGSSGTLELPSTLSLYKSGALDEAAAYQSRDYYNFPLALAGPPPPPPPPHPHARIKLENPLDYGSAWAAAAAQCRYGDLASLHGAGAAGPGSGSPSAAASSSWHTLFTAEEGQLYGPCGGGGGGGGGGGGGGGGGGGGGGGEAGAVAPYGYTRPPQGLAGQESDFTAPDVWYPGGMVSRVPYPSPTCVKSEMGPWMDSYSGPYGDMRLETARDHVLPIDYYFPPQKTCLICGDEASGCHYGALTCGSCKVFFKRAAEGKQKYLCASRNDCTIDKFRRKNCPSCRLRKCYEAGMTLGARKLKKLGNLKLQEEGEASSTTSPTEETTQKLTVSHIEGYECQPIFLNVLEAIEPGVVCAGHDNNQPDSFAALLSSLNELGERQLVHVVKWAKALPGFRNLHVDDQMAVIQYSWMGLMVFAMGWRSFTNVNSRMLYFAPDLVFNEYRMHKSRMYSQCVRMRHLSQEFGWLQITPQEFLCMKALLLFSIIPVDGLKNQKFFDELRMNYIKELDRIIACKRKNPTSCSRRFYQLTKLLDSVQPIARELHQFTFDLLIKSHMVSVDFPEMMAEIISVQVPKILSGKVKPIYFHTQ
Test: Androgen Receptor ELISA assay (PathScan AR ELISA) in VCaP cells: AR degradation, Dmax and DC50
Format: cell-based
In short: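 VCaP cells, 30,000/well, grown ≥3 days in phenol red-free RPMI with 5% charcoal-stripped FBS; compound added in 0.1% DMSO with 0.1 nM R1881, 7 half-log doses, 24 h. Lysate AR quantified by PathScan sandwich ELISA, HRP/TMB read at 450 nm, giving DC50 and Dmax.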

[1] = read-out: VCaP DC50; VCaP cells; Table 35
[2] = VCaP cells; Table 35; read-out: VCaP DC50
[3] = VCaP, VCaP cells; Table 35; read-out: VCaP Dmax (%)

Row | Structure (SMILES) | DC50 [1] | DC50 [2] | Dmax [3] | Dmax (VCaP, read-out: VCaP Dmax (%))
1 | Cc1ncsc1-c1ccc(CNC(=O)[C@@H]2C[C@@H](O)CN2C(=O)[C@@H](NC(=O)COCCCCOc2ccc(-c3ccc(N4C(=S)N(c5ccc(C#N)c(C(F)(F)F)c5)C(=O)C4(C)C)cc3)cc2)C(C)(C)C(=O)O)cc1 [Example 546] | > 501 nM | – | – | –
2 | CC(C)(C)[C@H](NC(=O)COCCCCNc1ccc(C(=O)N[C@H]2C(C)(C)[C@H](Oc3ccc(C#N)c(Cl)c3)C2(C)C)cc1)C(=O)N1C[C@H](O)C[C@H]1C(=O)NCc1ccc(C#N)cc1 [Example 547] | – | < 50 nM | 51 to 70% | –
3 | C[C@H](NC(=O)[C@@H]1C[C@@H](O)CN1C(=O)[C@@H](NC(=O)COCCCCOc1ccc(C(=O)N[C@H]2C(C)(C)[C@H](Oc3ccc(C#N)c(Cl)c3)C2(C)C)cc1)C(C)(C)C)c1ccc(C#N)cc1 [Example 548] | – | < 50 nM | 51 to 70% | –
4 | C[C@H](NC(=O)[C@@H]1C[C@@H](O)CN1C(=O)[C@@H](NC(=O)COCCOc1ccc(-c2ccc(C(=O)N[C@H]3C(C)(C)[C@H](Oc4ccc(C#N)c(Cl)c4)C3(C)C)cc2)cc1)C(C)(C)C)c1ccc(C#N)cc1 [Example 549] | – | < 50 nM | > 71% | –
5 | CC(C)(C)[C@H](NC(=O)COCCOc1ccc(-c2ccc(C(=O)N[C@H]3C(C)(C)[C@H](Oc4ccc(C#N)c(Cl)c4)C3(C)C)cc2)cc1)C(=O)N1C[C@H](O)C[C@H]1C(=O)NCc1ccc(C#N)cc1 [Example 550] | – | < 50 nM | > 71% | –
6 | CC(C)(C)[C@H](NC(=O)COCCCCCNc1ccc(C(=O)N[C@H]2C(C)(C)[C@H](Oc3ccc(C#N)c(Cl)c3)C2(C)C)cn1)C(=O)N1C[C@H](O)C[C@H]1C(=O)NCc1ccc(C#N)cc1 [Example 551] | – | < 50 nM | 51 to 70% | –
7 | CC(C)(C)[C@H](NC(=O)COCCCCCNc1ccc(C(=O)N[C@H]2C(C)(C)[C@H](Oc3ccc(C#N)c(Cl)c3)C2(C)C)cc1)C(=O)N1C[C@H](O)C[C@H]1C(=O)NCc1ccc(Cl)cc1 [Example 552] | – | < 50 nM | 51 to 70% | –
8 | Cc1ncsc1-c1ccc(CNC(=O)[C@@H]2C[C@@H](O)CN2C(=O)[C@@H](NC(=O)COCCNc2ccc(-c3ccc(C(=O)N[C@H]4C(C)(C)[C@H](Oc5ccc(C#N)c(Cl)c5)C4(C)C)cc3)cn2)C(C)(C)C)cc1 [Example 553] | – | < 50 nM | > 71% | –
9 | Cc1ncsc1-c1ccc(CNC(=O)[C@@H]2C[C@@H](O)CN2C(=O)[C@@H](NC(=O)COCCCCNc2ccc(-c3ccc(N4C(=S)N(c5ccc(C#N)c(C(F)(F)F)c5)C(=O)C4(C)C)cc3)cn2)C(C)(C)C)cc1 [Example 554] | < 50 nM | – | – | 51 to 70%
10 | CC(C)(C)[C@H](NC(=O)COCCCCCNc1ccc(C(=O)N[C@H]2C(C)(C)[C@H](Oc3ccc(C#N)c(Cl)c3)C2(C)C)cc1)C(=O)N1C[C@H](O)C[C@H]1C(=O)NCc1ccc(-c2scnc2C2CC2)cc1 [Example 555] | – | < 50 nM | > 71% | –
11 | CC(C)c1ncsc1-c1ccc(CNC(=O)[C@@H]2C[C@@H](O)CN2C(=O)[C@@H](NC(=O)COCCCCCNc2ccc(C(=O)N[C@H]3C(C)(C)[C@H](Oc4ccc(C#N)c(Cl)c4)C3(C)C)cc2)C(C)(C)C)cc1 [Example 556] | – | < 50 nM | > 71% | –
12 | Cc1ncsc1-c1ccc([C@H](C)NC(=O)[C@@H]2C[C@@H](O)CN2C(=O)[C@@H](NC(=O)COC[C@H](O)[C@@H](O)COc2ccc(-c3ccc(N4C(=S)N(c5ccc(C#N)c(C(F)(F)F)c5)C(=O)C4(C)C)cc3)cc2)C(C)(C)C)cc1 [Example 559] | < 50 nM | – | – | > 71%
13 | Cc1ncsc1-c1ccc(CNC(=O)[C@@H]2C[C@@H](O)CN2C(=O)[C@@H](NC(=O)COC[C@@H](O)[C@H](O)COc2ccc(C(=O)N[C@H]3C(C)(C)[C@H](Oc4ccc(C#N)c(Cl)c4)C3(C)C)cc2)C(C)(C)C)cc1 [Example 563] | – | < 50 nM | 51 to 70% | –
14 | Cc1ncsc1-c1ccc(CNC(=O)[C@@H]2C[C@@H](O)CN2C(=O)[C@@H](NC(=O)COC[C@H]2C[C@H](Oc3ccc(C(=O)N[C@H]4C(C)(C)[C@H](Oc5ccc(C#N)c(Cl)c5)C4(C)C)cc3)C2)C(C)(C)C)cc1 [Example 564] | – | < 50 nM | > 71% | –
15 | Cc1ncsc1-c1ccc(CNC(=O)[C@@H]2C[C@@H](O)CN2C(=O)[C@@H](NC(=O)COC[C@H]2C[C@H](Oc3ccc(-c4ccc(N5C(=S)N(c6ccc(C#N)c(C(F)(F)F)c6)C(=O)C5(C)C)cc4)cc3)C2)C(C)(C)C)cc1 [Example 565] | < 50 nM | – | – | > 71%
16 | Cc1ncsc1-c1ccc(CNC(=O)[C@@H]2C[C@@H](O)CN2C(=O)[C@@H](NC(=O)COC[C@@H](O)[C@H](O)COc2ccc(-c3ccc(N4C(=S)N(c5ccc(C#N)c(C(F)(F)F)c5)C(=O)C4(C)C)cc3)cc2)C(C)(C)C)cc1 [Example 566] | < 50 nM | – | – | 51 to 70%
17 | Cc1ncsc1-c1ccc(CNC(=O)[C@@H]2C[C@@H](O)CN2C(=O)[C@@H](NC(=O)COC[C@H](O)[C@@H](O)COc2ccc(-c3ccc(N4C(=S)N(c5ccc(C#N)c(C(F)(F)F)c5)C(=O)C4(C)C)cc3)cc2)C(C)(C)C)cc1 [Example 567] | < 50 nM | – | – | > 71%
18 | CC(C)(C)[C@H](NC(=O)COCCCCOc1ccc(C(=O)N[C@H]2C(C)(C)[C@H](Oc3ccc(C#N)c(Cl)c3)C2(C)C)cc1)C(=O)N1C[C@H](O)C[C@H]1C(=O)NCc1ccc(-n2cccn2)cc1 [Example 568] | – | < 50 nM | > 71% | –
19 | C[C@H](NC(=O)[C@@H]1C[C@@H](O)CN1C(=O)[C@@H](NC(=O)COCCCCOc1ccc(C(=O)N[C@H]2C(C)(C)[C@H](Oc3ccc(C#N)c(Cl)c3)C2(C)C)cc1)C(C)(C)C)c1ccc(-c2ncon2)cc1 [Example 569] | – | < 50 nM | > 71% | –
20 | C[C@H](NC(=O)[C@@H]1C[C@@H](O)CN1C(=O)[C@@H](NC(=O)COCCCCOc1ccc(C(=O)N[C@H]2C(C)(C)[C@H](Oc3ccc(C#N)c(Cl)c3)C2(C)C)cc1)C(C)(C)C)c1ccc(-c2nncs2)cc1 [Example 570] | – | < 50 nM | > 71% | –
21 | CC(C)(C)[C@H](NC(=O)COCCCCOc1ccc(-c2ccc(N3C(=S)N(c4cnc(C#N)c(C(F)(F)F)c4)C(=O)C3(C)C)cc2)cc1)C(=O)N1C[C@H](O)C[C@H]1C(=O)NCc1ccc(C#N)cc1 [Example 571] | – | < 50 nM | > 71% | –
22 | C[C@H](NC(=O)[C@@H]1C[C@@H](O)CN1C(=O)[C@@H](NC(=O)COCCCCOc1ccc(C(=O)N[C@H]2C(C)(C)[C@H](Oc3ccc(C#N)c(Cl)c3)C2(C)C)cc1)C(C)(C)C)c1ccc(Cl)cc1 [Example 572] | – | < 50 nM | > 71% | –
23 | CC(C)(C)[C@H](NC(=O)COCCOc1ccc(-c2ccc(C(=O)N[C@H]3C(C)(C)[C@H](Oc4ccc(C#N)c(Cl)c4)C3(C)C)cc2)cc1)C(=O)N1C[C@H](O)C[C@H]1C(=O)NCc1ccc(Cl)cc1 [Example 573] | – | > 501 nM | 51 to 70% | –
24 | Cc1ncsc1-c1ccc([C@H](C)NC(=O)[C@@H]2C[C@@H](O)CN2C(=O)[C@@H](NC(=O)COC[C@@H](O)[C@H](O)COc2ccc(-c3ccc(N4C(=S)N(c5ccc(C#N)c(C(F)(F)F)c5)C(=O)C4(C)C)cc3)cc2)C(C)(C)C)cc1 [Example 574] | < 50 nM | – | – | > 71%
25 | Cc1ncsc1-c1ccc([C@H](C)NC(=O)[C@@H]2C[C@@H](O)CN2C(=O)[C@@H](NC(=O)COC[C@@H](O)CCOc2ccc(-c3ccc(N4C(=S)N(c5ccc(C#N)c(C(F)(F)F)c5)C(=O)C4(C)C)cc3)cc2)C(C)(C)C)cc1 [Example 575] | < 50 nM | – | – | > 71%
26 | Cc1ncsc1-c1ccc([C@H](C)NC(=O)[C@@H]2C[C@@H](O)CN2C(=O)[C@@H](NC(=O)COC[C@H](O)CCOc2ccc(-c3ccc(N4C(=S)N(c5ccc(C#N)c(C(F)(F)F)c5)C(=O)C4(C)C)cc3)cc2)C(C)(C)C)cc1 [Example 576] | < 50 nM | – | – | > 71%
27 | Cc1ncsc1-c1ccc(CNC(=O)[C@@H]2C[C@@H](O)CN2C(=O)[C@@H](NC(=O)COC[C@H](O)[C@@H](O)COc2ccc(C(=O)N[C@H]3C(C)(C)[C@H](Oc4ccc(C#N)c(Cl)c4)C3(C)C)cc2)C(C)(C)C)cc1 [Example 577] | – | < 50 nM | > 71% | –
